Source: BindingDB's records for PubMed 28813519 (Erasmus University Medical Center)

Columns and labels:
[1] = Inhibition of BRD4 in mouse MPNST cells assessed as reduction in cell viability incubated for 72 hrs by SRB assay
[2] = Inhibition of BRD4 in mouse primary skin-derived precursors (Nf1-/-, P53-/-) assessed as reduction in cell viability incubated for 72 hrs by SRB assay

In the case of `Cc1sc2c(c1C)C(c1ccc(Cl)cc1)=N[C@@H](CC(=O)OC(C)(C)C)c1nnc(C)n1-2`, the IC50 [1] is reported as under 400 nM and the IC50 [2] is reported as under 400 nM.
